The results in this text go back to US10172581B2, “Methods of assessing tumor growth” (Dana-Farber Cancer Institute, Inc., priority 2013, dated 2019).

Like-named read-outs stand apart in the source and are kept apart here.

In assay [1] the test system is NSCLC with sensitizing EGFR mutations (dominant measurable lung lesion). Conditions: for tumor volume: same patient.
Description: Patients provided informed consent and their records were retrospectively reviewed with IRB approval.
Baseline and follow-up CT scans were performed to determine response to EGFR-TKI using the clinical chest CT protocol [31]. Follow-up CT scans were performed every 8 weeks for 33 patients enrolled in prospective trials of EGFR-TKI, and at the discretion of the treating providers for 25 patients treated off protocol [5,25,45-47]. […] The nadir (the smallest tumor volume recorded from baseline to TKI termination/last follow-up) was determined for each patient.
1, 2012, were analyzed. Demographics and disease characteristics were summarized with descriptive statistics. A linear mixed effects model, fitting time as a random effect [48], was fitted to the repeated measures of volume data to estimate the effect of time and other prognostic factors on tumor growth. The tumor volume (mm^3) was transformed to the natural logarithm scale, and the logarithm of tumor volume (logeV) was used. The first model was built adjusting only for time in months from baseline. Since the baseline volume (logeV0; the tumor volume measured on the baseline scan performed before the initiation of TKI therapy) may influence the tumor volume and its growth rate, the second model was adjusted for time and logeV0.
Assay [2] deals with stage IV lung adenocarcinoma. Nature of the assay: CT follow-up of a lung adenocarcinoma patient on crizotinib (FIG. 4). The assay is classed as in vivo, human. Conditions: person, 8 weeks.

As to `C#Cc1cccc(Nc2ncnc3cc(OCCOC)c(OCCOC)cc23)c1` [erlotinib], the “tumor volume at nadir” value in assay [1] (person, stage IV lung adenocarcinoma, 4 month of therapy, baseline 25,016 mm^3) is listed as 5,288 mm^3. Besides, the tumor volume in assay [1] (5 month, regrowth after nadir) was 7,490 mm^3; in assay [1] (7 month), 12,922 mm^3.

On to `C[C@@H](Oc1cc(-c2cnn(C3CCNCC3)c2)cnc1N)c1c(Cl)ccc(F)c1Cl` [crizotinib], for which the “change of lung lesion on CT” value in assay [2] was “marked decrease of the lesion and nodular pericardial thickening”.
